Source: US20230061736A1, “GPR119 AGONISTS” (Kallyope, Inc., priority 2019, published 2023)
Where a name gives a salt, the structure may show the parent alone.

Biological target: T1, human GPR119 (hGPR119) (Homo sapiens, UniProt Q8TDV5)
T1 construct: expressed in transfected cells
T1 sequence (Q8TDV5 1-335): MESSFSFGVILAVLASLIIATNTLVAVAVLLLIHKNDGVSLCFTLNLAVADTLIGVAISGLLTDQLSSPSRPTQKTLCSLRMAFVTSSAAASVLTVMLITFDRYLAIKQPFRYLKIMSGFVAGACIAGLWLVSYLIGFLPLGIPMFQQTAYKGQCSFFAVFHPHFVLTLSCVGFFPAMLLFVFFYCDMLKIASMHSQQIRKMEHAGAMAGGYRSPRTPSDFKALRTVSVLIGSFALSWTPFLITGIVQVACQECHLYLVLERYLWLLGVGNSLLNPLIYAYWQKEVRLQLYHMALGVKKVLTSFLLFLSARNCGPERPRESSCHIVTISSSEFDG
Assay: cAMP accumulation assay (cAMP Gs dynamic HTRF kit)
Assay type: cell-based
Conditions: CHO-K1 cells stably expressing hGPR119, 4-parameter fit; for Emax: 1 h, % activity normalized to Max/Min controls; for EC50: cAMP accumulation
Procedure, shortened: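 Read-out is HTRF 665/620 nm ratio after 1 h detection at ambient temperature, converted to % activity against positive and negative controls, EC50 and Max activity by 4-parameter fit. Compounds were titrated onto ~10,000 thawed hGPR119-CHO-K1 cells/well for 60 min at 37° C/5% CO2.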

Row | Emax [%] | EC50 [nM] | Compound
1 | 100 to 130 | ≤ 100 | CCOc1cnc(N2CCC(CCCOc3cc(F)c(CC(=O)N4CCC(O)(CNCC(CO)(CO)CO)C4)c(F)c3)CC2)nc1 (stereo not shown) [Example 189, 2-[4-[3-[1-(5-ethoxypyrimidin-2-yl)-4-piperidyl]propoxy]-2,6-difluoro-phenyl]-1-[3-hydroxy-3-[[[3-hydroxy-2,2-bis(hydroxymethyl)propyl]amino]methyl]pyrrolidin-1-yl]ethanone]
2 | 100 to 130 | ≤ 100 | COCC1(C(=O)NC[C@H](O)[C@@H](O)[C@H](O)[C@H](O)CO)CCN(C(=O)Cc2ccc(OCCCC3CCN(c4ncc(Cl)cn4)CC3)cc2F)C1 (stereo partly drawn) [Example 136, 1-[2-[4-[3-[1-(5-chloropyrimidin-2-yl)-4-piperidyl]propoxy]-2-fluoro-phenyl]acetyl]-3-(methoxymethyl)-N-[(2S,3R,4R,5R)-2,3,4,5,6-pentahydroxyhexyl]pyrrolidine-3-carboxamide]
3 | ≥ 130 | 100 to 1000 | CCc1cnc(N2CCC(CCCOc3ccc(CC(=O)N4CC(CNCC(CO)CO)C4)c(F)c3)CC2)nc1 [Example 62, 2-(4-(3-(1-(5-ethylpyrimidin-2-yl)piperidin-4-yl)propoxy)-2-fluorophenyl)-1-(3-(((3-hydroxy-2-(hydroxymethyl)propyl)amino)methyl)azetidin-1-yl)ethan-1-one]
4 | 100 to 130 | ≤ 100 | CCOc1cnc(N2CCC(CCCOc3cc(F)c(CC(=O)N4CC(CNC[C@H](O)[C@@H](O)[C@H](O)[C@H](O)CO)C4)c(F)c3)CC2)nc1 [Example 114, 2-[4-[3-[1-(5-ethoxypyrimidin-2-yl)-4-piperidyl]propoxy]-2,6-difluoro-phenyl]-1-[3-[[[(2S,3R,4R,5R)-2,3,4,5,6-pentahydroxyhexyl]amino]methyl]azetidin-1-yl]ethanone]
5 | 100 to 130 | 100 to 1000 | COC(=O)c1cnc(N2CCC(CCCOc3ccc(CC(=O)N4CC(CNC[C@H](O)[C@@H](O)[C@H](O)[C@H](O)CO)C4)c(F)c3)CC2)nc1 [Example 87, methyl 2-[4-[3-[3-fluoro-4-[2-oxo-2-[3-[[[(2S,3R,4R,5R)-2,3,4,5,6-pentahydroxyhexyl]amino]methyl]azetidin-1-yl]ethyl]phenoxy]propyl]-1-piperidyl]pyrimidine-5-carboxylate]
6 | 50 to 100 | 1000 to 10000 | CCc1cnc(N2CCC(CCOCc3ccc(CC(=O)N4CC(CNC[C@H](O)[C@@H](O)[C@H](O)[C@H](O)CO)C4)cc3F)CC2)nc1 [Example 89]
7 | ≥ 130 | 100 to 1000 | CCCc1cnc(N2CCC(CCCOc3ccc(CC(=O)N4CC(CNC[C@H](O)[C@@H](O)[C@H](O)[C@H](O)CO)C4)c(F)c3)CC2)nc1 [Example 74, 2-(2-fluoro-4-(3-(1-(5-propylpyrimidin-2-yl)piperidin-4-yl)propoxy)phenyl)-1-(3-((((2S,3R,4R,5R)-2,3,4,5,6-pentahydroxyhexyl)amino)methyl)azetidin-1-yl)ethan-1-one]
8 | 50 to 100 | 100 to 1000 | O=C(Cc1ccc(COCCCC2CCN(c3ncc(Cl)cn3)CC2)cc1F)N1CC(CNC[C@H](O)[C@@H](O)[C@H](O)[C@H](O)CO)C1 [Example 90, 2-[4-[3-[1-(5-chloropyrimidin-2-yl)-4-piperidyl]propoxymethyl]-2-fluoro-phenyl]-1-[3-[[[(2S,3R,4R,5R)-2,3,4,5,6-pentahydroxyhexyl]amino]methyl]azetidin-1-yl]ethanone]
9 | 100 to 130 | ≤ 100 | O=C(Cc1c(F)cc(OCCCC2CCN(c3ncc(Cl)cn3)CC2)cc1F)N1CCC(O)(CNCC(CO)(CO)CO)C1 (stereo not shown) [Example 188, 2-[4-[3-[1-(5-chloropyrimidin-2-yl)-4-piperidyl]propoxy]-2,6-difluoro-phenyl]-1-[3-hydroxy-3-[[[3-hydroxy-2,2-bis(hydroxymethyl)propyl]amino]methyl]pyrrolidin-1-yl]ethanone]
10 | ≥ 130 | 100 to 1000 | CCCc1cnc(N2CCC(CCCOc3cc(F)c(CC(=O)N4CC(CNCCNC(=O)NC(CO)(CO)CO)C4)c(F)c3)CC2)nc1 [Example 77, 1-(2-(((1-(2-(2,6-difluoro-4-(3-(1-(5-propylpyrimidin-2-yl)piperidin-4-yl)propoxy)phenyl)acetyl)azetidin-3-yl)methyl)amino)ethyl)-3-(1,3-dihydroxy-2-(hydroxymethyl)propan-2-yl)urea]
11 | 50 to 100 | 1000 to 10000 | CC(C)OC(=O)N1CCC2(CCC2CCOc2cc(F)c(CC(=O)N3CC(CNC[C@H](O)[C@@H](O)[C@H](O)[C@H](O)CO)C3)c(F)c2)CC1 (stereo partly drawn) [Example 141, isopropyl 3-[2-[3,5-difluoro-4-[2-oxo-2-[3-[[[(2S,3R,4R,5R)-2,3,4,5,6-pentahydroxyhexyl]amino]methyl]azetidin-1-yl]ethyl]phenoxy]ethyl]-7-azaspiro[3.5]nonane-7-carboxylate]
12 | 100 to 130 | 100 to 1000 | CCOc1cnc(N2CCC(CCCOc3ccc(CC(=O)N4CC(CNC[C@H](O)[C@@H](O)[C@H](O)[C@H](O)CO)C4)c(F)c3)CC2)nc1 (racemic) [Example 80, 2-[4-[3-[1-(5-ethoxypyrimidin-2-yl)-4-piperidyl]propoxy]-2-fluoro-phenyl]-1-[3-[[[rac-(2S,3R,4R,5R)-2,3,4,5,6-pentahydroxyhexyl]amino]methyl]azetidin-1-yl]ethanone]
13 | 100 to 130 | 100 to 1000 | O=C(Cc1c(F)cc(OCCCC2CC23CCN(c2ncc(Cl)cn2)CC3)cc1F)N1CC(CNC[C@H](O)[C@@H](O)[C@H](O)[C@H](O)CO)C1 (stereo partly shown) [Example 143]

More lines, now with the values behind:

Row | Compound | Emax [%] | EC50 [nM]
14 | O=C(Cc1ccc(COCC2CC23CCN(c2ncc(Cl)cn2)CC3)cc1F)N1CC(CNC[C@H](O)[C@@H](O)[C@H](O)[C@H](O)CO)C1 (stereo partly drawn) [Example 111, 2-[4-[[6-(5-chloropyrimidin-2-yl)-6-azaspiro[2.5]octan-2-yl]methoxymethyl]-2-fluoro-phenyl]-1-[3-[[[(2S,3R,4R,5R)-2,3,4,5,6-pentahydroxyhexyl]amino]methyl]azetidin-1-yl]ethanone] | 50 to 100 | 1000 to 10000
15 | O=C(Cc1c(F)cc(OCCCC2CCN(c3ncc(Cl)cn3)CC2)cc1F)NC(CO)(CO)CO [Example 6, 2-[4-[3-[1-(5-chloropyrimidin-2-yl)-4-piperidyl]propoxy]-2,6-difluoro-phenyl]-N-[2-hydroxy-1,1-bis(hydroxymethyl)ethyl]acetamide] | 100 to 130 | 100 to 1000
16 | CCCc1cnc(N2CCC(CCCOc3cc(F)c(CC(=O)N4CC(C(=O)NCCC[N+](C)(C)C)C4)c(F)c3)CC2)nc1 [Example 40, 3-[[1-[2-[2,6-difluoro-4-[3-[1-(5-propylpyrimidin-2-yl)-4-piperidyl]propoxy]phenyl]acetyl]azetidine-3-carbonyl]amino]propyl-trimethyl-ammonium formate] | 100 to 130 | –
17 | CC(C)OC(=O)N1CCC2(CC1)CC(CCCOc1ccc(CC(=O)N3CC(CNC[C@H](O)[C@@H](O)[C@H](O)[C@H](O)CO)C3)c(F)c1)C2 [Example 117, isopropyl 2-[3-[3-fluoro-4-[2-oxo-2-[3-[[[(2S,3R,4R,5R)-2,3,4,5,6-pentahydroxyhexyl]amino]methyl]azetidin-1-yl]ethyl]phenoxy]propyl]-7-azaspiro[3.5]nonane-7-carboxylate] | 100 to 130 | 100 to 1000
18 | O=C(Cc1ccc(OCCCC2CCN(c3ncc(Cl)cn3)CC2)cc1F)NCCCCC(=O)NC(CO)CO [Example 23, 5-[[2-[4-[3-[1-(5-chloropyrimidin-2-yl)-4-piperidyl]propoxy]-2-fluoro-phenyl]acetyl]amino]-N-[2-hydroxy-1-(hydroxymethyl)ethyl]pentanamide] | ≥ 130 | 100 to 1000
19 | O=C(Cc1ccc(OCCCC2CCN(c3ncc(Cl)cn3)CC2)cc1F)N1CCC(O)(CNCC(CO)(CO)CO)CC1 [Example 183, 2-[4-[3-[1-(5-chloropyrimidin-2-yl)-4-piperidyl]propoxy]-2-fluoro-phenyl]-1-[4-hydroxy-4-[[[3-hydroxy-2,2-bis (hydroxymethyl)propyl]amino]methyl]-1-piperidyl]ethanone] | 100 to 130 | ≤ 100
20 | CC(C)OC(=O)N1CCC2(CC1)CC(CCOc1ccc(CC(=O)N3CC(CNC[C@H](O)[C@@H](O)[C@H](O)[C@H](O)CO)C3)c(F)c1)C2 [Example 118, isopropyl 2-[2-[3-fluoro-4-[2-oxo-2-[3-[[[(2S,3R,4R,5R)-2,3,4,5,6-pentahydroxyhexyl]amino]methyl]azetidin-1-yl]ethyl]phenoxy]ethyl]-7-azaspiro[3.5]nonane-7-carboxylate] | 100 to 130 | 100 to 1000
21 | O=C(NCCCS(=O)(=O)O)C1CN(C(=O)Cc2ccc(OCCCC3CCN(c4ncc(Cl)cn4)CC3)cc2F)C1 [Example 172, 3-[[1-[2-[4-[3-[1-(5-chloropyrimidin-2-yl)-4-piperidyl]propoxy]-2-fluoro-phenyl]acetyl]azetidine-3-carbonyl]amino]propane-1-sulfonic acid] | 100 to 130 | ≤ 100
22 | O=C(Cc1ccc(OCCCC2CCN(c3ncc(Cl)cn3)CC2)cc1F)NCCC(=O)NC(CO)(CO)CO [Example 20, 3-[[2-[4-[3-[1-(5-chloropyrimidin-2-yl)-4-piperidyl]propoxy]-2-fluoro-phenyl]acetyl]amino]-N-[2-hydroxy-1,1-bis(hydroxymethyl)ethyl]propanamide] | ≥ 130 | 100 to 1000
